Like-named read-outs stand apart in the source and are kept apart here.
How the values were obtained:
[1] = test system: DU145 (UZ) prostate cancer cells; assay: Cytostatic assay, DU145 (UZ); type: cell-based; settings: Homo sapiens, DU-145; Table 4
Procedure: (§1) To each well of a 96-well microtiter plate were added 5-7.5×10^4 cells and a given amount of the test compound. The cells were allowed to proliferate for 48 h to 96 h (depending on the nature of the cell line) at 37° C. in a humidified CO2-controlled atmosphere. At the end of the incubation period, the cells were counted in a Coulter Counter (Coulter Electronics Ltd, Harpenden Herts, United Kingdom).

[2] = test system: HL60, human leukemia cells; assay: Cytostatic assay, HL-60; type: cell-based; settings: Table 2
Procedure: as §1

[3] = test system: PC-3 (UZ) prostate cancer cells; assay: Cytostatic assay, PC-3 (UZ); type: cell-based; settings: Table 4
Procedure: as §1

[4] = test system: PC3 (rega) prostate cancer cells; assay: Cytostatic assay, PC3 (rega); type: cell-based; settings: Table 4
Procedure: as §1

[5] = test system: Caki-1 kidney carcinoma cells; assay: Cytostatic assay, Caki-1; type: cell-based; settings: Homo sapiens, Table 3
Procedure: as §1

[6] = test system: MCF-7 mammary carcinoma cells; assay: Cytostatic assay, MCF-7; type: cell-based; settings: Homo sapiens, MCF7; Table 3
Procedure: as §1

[7] = test system: C8166 cells; assay: Cytostatic assay, C8166; type: cell-based; settings: Homo sapiens, Table 2
Procedure: as §1

[8] = test system: U937, human monocytic cells; assay: Cytostatic assay, U937; type: cell-based; settings: U-937, Table 2
Procedure: as §1

[9] = test system: PNT1A (UZ) prostate cells; assay: Cytostatic assay, PNT1A (UZ); type: cell-based; settings: Homo sapiens, Table 4
Procedure: as §1

[10] = test system: PLC/PRF/5 hepatoma cells; assay: Cytostatic assay, PLC/PRF/5; type: cell-based; settings: Homo sapiens, Table 4
Procedure: as §1

[11] = test system: HUT-78 cells; assay: Cytostatic assay, HUT-78; type: cell-based; settings: Homo sapiens, HuT78; Table 2
Procedure: as §1

[12] = test system: Huh-7 hepatoma cells; assay: Cytostatic assay, Huh-7; type: cell-based; settings: Homo sapiens, Table 4
Procedure: as §1

[13] = test system: THP-1, human monocytic cells; assay: Cytostatic assay, THP-1; type: cell-based; settings: Table 2
Procedure: as §1

[14] = test system: MT-2 cells; assay: Cytostatic assay, MT-2; type: cell-based; settings: Homo sapiens, MT2; Table 2
Procedure: as §1

[15] = test system: Sup T1 cells; assay: Cytostatic assay, Sup T1; type: cell-based; settings: Homo sapiens, Table 2, read-out: Cytostatic activity (μM) Sup T 1
Procedure: as §1

[16] = test system: Raji, human B-lymphoma cells; assay: Cytostatic assay, Raji; type: cell-based; settings: Table 2
Procedure: as §1

[17] = test system: HEL embryonic lung fibroblast cells; assay: Cytostatic assay, HEL; type: cell-based; settings: Homo sapiens, Table 3
Procedure: as §1

[18] = test system: BPH-1 (UZ); assay: Cytostatic assay, BPH-1 (UZ); type: cell-based; settings: Homo sapiens, Table 4
Procedure: as §1

[19] = test system: BAEC aortic endothelial cells; assay: Cytostatic assay, BAEC; type: cell-based, bovine; settings: Bos taurus, Table 3
Procedure: as §1

[20] = test system: Caki-2 kidney carcinoma cells; assay: Cytostatic assay, Caki-2; type: cell-based; settings: Homo sapiens, Table 3
Procedure: as §1

[21] = test system: MT-4 cells; assay: Cytostatic assay, MT-4; type: cell-based; settings: Homo sapiens, MT4; Table 2
Procedure: as §1

[22] = test system: FM3A mammary carcinoma cells; assay: Cytostatic assay, FM3A; type: cell-based, murine; settings: Mus musculus, Table 3
Procedure: as §1

[23] = test system: HT29 colorectal carcinoma cells; assay: Cytostatic assay, HT29; type: cell-based; settings: Homo sapiens, HT-29; Table 3
Procedure: as §1

[24] = test system: L1210 cells; assay: Cytostatic assay, L1210; type: cell-based; settings: Mus musculus, Table 2
Procedure: as §1

[25] = test system: HepG2C3A hepatoma cells; assay: Cytostatic assay, HepG2C3A; type: cell-based; settings: Homo sapiens, HepG2/C3A; Table 4
Procedure: as §1

[26] = test system: Molt4/C8 cells; assay: Cytostatic assay, Molt4/C8; type: cell-based; settings: Table 2
Procedure: as §1

[27] = test system: 293T embryonic kidney cells; assay: Cytostatic assay, 293T; type: cell-based; settings: Homo sapiens, HEK-293T; Table 3
Procedure: as §1

[28] = test system: LNCaP (UZ) prostate cancer cells; assay: Cytostatic assay, LNCaP (UZ); type: cell-based; settings: Homo sapiens, Table 4
Procedure: as §1

[29] = test system: 22Rv1 (UZ) prostate cancer cells; assay: Cytostatic assay, 22Rv1 (UZ); type: cell-based; settings: Homo sapiens, Table 4
Procedure: as §1

[30] = test system: OST TK- osteosarcoma cells; assay: Cytostatic assay, OST TK-; type: cell-based; settings: Homo sapiens; Table 3
Procedure: as §1

[31] = test system: CEM cells; assay: Cytostatic assay, CEM; type: cell-based; settings: Homo sapiens, CCRF-CEM
Procedure: as §1

[32] = test system: HeLa cervix carcinoma cells; assay: Cytostatic assay, HeLa; type: cell-based, human; settings: Homo sapiens; Table 3; read-out: Cytostatic activity (μM) Hela
Procedure: as §1

[33] = test system: U87 glioma cells; assay: Cytostatic assay, U87; type: cell-based; settings: Homo sapiens, U-87 MG; Table 3
Procedure: as §1

[34] = Table 1a, read-out: IC50 μM (CEM)
[35] = Table 2, read-out: Cytostatic activity (μM) CEM

| Structure (SMILES) | IC50 [1] | IC50 [2] | IC50 [3] | IC50 [4] | IC50 [5] | IC50 [6] | IC50 [7] | IC50 [8] | IC50 [9] | IC50 [10] | IC50 [11] | IC50 [12] | IC50 [13] | IC50 [14] | IC50 [15] | IC50 [16] | IC50 [17] | IC50 [18] | IC50 [19] | IC50 [20] | further results |
| --- | --- | --- | --- | --- | --- | --- | --- | --- | --- | --- | --- | --- | --- | --- | --- | --- | --- | --- | --- | --- | --- |
| COC(=O)c1cc(-c2ccc(OC)cc2)sc1N [TR572, 2-Amino-5-(4-methoxy-phenyl)-thiophene-3-carboxylic acid methyl ester] | 18 ± 9.2 µM | 11 ± 1.4 µM | 4.3 ± 1.7 µM | 5.5 ± 4 µM | 4.4 ± 1.9 µM | 119 ± 52 µM | 179 ± 18 µM | 63 ± 7.1 µM | 53 ± 2.1 µM | 42 ± 2.1 µM | 26 ± 17 µM | 42 ± 7.8 µM | 21 ± 0.7 µM | 12 ± 1.4 µM | 55 ± 30 µM | 61 ± 18 µM | 34 ± 20 µM | 58 ± 6.4 µM | 47 ± 3.5 µM | 9 ± 1.4 µM | IC50 [21]: 40 ± 12 µM; IC50 [22]: 97 ± 32 µM; IC50 [23]: 42 ± 3.5 µM; IC50 [24]: 60 ± 12 µM; IC50 [25]: 28 ± 8.5 µM; IC50 [26]: 44 ± 9 µM; IC50 [27]: > 100 µM; IC50 [28]: 1.1 ± 0.84 µM; IC50 [29]: 69 ± 44 µM; IC50 [30]: 25 ± 2.1 µM; IC50 [31, 34]: 74 µM; IC50 [31, 35]: 74 ± 3.5 µM; IC50 [32]: 63 ± 19 µM; IC50 [33]: 71 ± 3.5 µM |
| COC(=O)c1cc(-c2ccccc2OC)sc1N [TR581, 2-Amino-5-(2-methoxy-phenyl)-thiophene-3-carboxylic acid methyl ester] | 35 ± 6.4 µM | 16 ± 3.5 µM | 28 ± 4.9 µM | 26 ± 8.5 µM | 39 ± 2.1 µM | 29 ± 20 µM | 149 ± 14 µM | 82 ± 7.1 µM | 58 ± 13 µM | 36 ± 4.2 µM | 152 ± 44 µM | 59 ± 17 µM | 69 ± 13 µM | 103 ± 52 µM | 45 ± 31 µM | 59 ± 11 µM | 24 ± 2.1 µM | 50 ± 5.7 µM | 38 ± 2.1 µM | 28 ± 18 µM | IC50 [21]: 36 ± 15 µM; IC50 [22]: 275 ± 206 µM; IC50 [23]: 43 ± 1.4 µM; IC50 [24]: 204 ± 85 µM; IC50 [25]: 38 ± 27 µM; IC50 [26]: 39 ± 8 µM; IC50 [27]: 72 ± 4.9 µM; IC50 [28]: 9.7 ± 5.1 µM; IC50 [29]: 42 ± 7.6 µM; IC50 [30]: 45 ± 4.2 µM; IC50 [31, 34]: 55 µM; IC50 [31, 35]: 55 µM; IC50 [32]: 41 ± 4.9 µM; IC50 [33]: 42 ± 5.7 µM |
| COc1ccc(CCc2cc(C#N)c(N)s2)cc1 [TR586, 2-Amino-5-[2-(4-methoxy-phenyl)-ethyl]-thiophene-3-carbonitrile] | 8.3 ± 2.5 µM | 1.9 ± 0.42 µM | 4.2 ± 0.14 µM | 1.8 ± 2 µM | 1.9 ± 0.42 µM | 114 ± 62 µM | 57 ± 56 µM | 17 ± 2.8 µM | 38 ± 14 µM | 37 ± 0.71 µM | 17 ± 8.1 µM | > 100 µM | 4.3 ± 0.6 µM | 6.8 ± 3.7 µM | 79 ± 42 µM | 36 ± 21 µM | > 100 µM | 59 ± 18 µM | 38 ± 2.1 µM | 28 ± 27 µM | IC50 [21]: 74 ± 37 µM; IC50 [22]: 34 ± 23 µM; IC50 [23]: 34 ± 6.4 µM; IC50 [24]: 14 ± 4 µM; IC50 [25]: 46 ± 13 µM; IC50 [26]: 1.4 ± 0.8 µM; IC50 [27]: 28 ± 3.5 µM; IC50 [28]: 0.83 ± 0.35 µM; IC50 [29]: 17 ± 8.1 µM; IC50 [30]: 27 ± 18 µM; IC50 [31, 34]: 16 µM; IC50 [31, 35]: 16 ± 17 µM; IC50 [32]: 21 ± 9.9 µM; IC50 [33]: > 100 µM |
